Values of other authors, collected in patent US20200253960A1, “ANTIBIOTIC FORMULATIONS FOR TREATING OF CAVITY INFECTIONS” (ARADIGM CORPORATION, priority 2019, published 2020).

System: Pseudomonas aeruginosa
Conditions: cystic fibrosis

## CC[C@H]1OC(=O)[C@H](C)[C@@H](O[C@H]2C[C@@](C)(OC)[C@@H](O)[C@H](C)O2)[C@H](C)[C@@H](O[C@@H]2O[C@H](C)C[C@H](N(C)C)[C@H]2O)[C@](C)(O)C[C@@H](C)CN(C)[C@H](C)[C@@H](O)[C@]1(C)O [azithromycin]
  interaction with inhaled tobramycin: antagonistic against inhaled tobramycin
